Assay results taken from ChEMBL document CHEMBL2390865, “Discovery of aryl ureas and aryl amides as potent and selective histamine H3 receptor antagonists for the treatment of obesity (part II)” (Bioorg Med Chem Lett, 2013).
≈ marks a conversion by molar mass, not a printed value. Blank lines part the entries; values can stand above or below the compound they belong to. Calls of active or inactive are those of the source. The calls are words filed in the database; no cut-off is given here.

How the values were obtained:
[1] = Displacement of [3H]N-alpha-methylhistamine from rhesus monkey histamine H3 receptor transfected in CHO cells; assay type: cell-based, Macaca mulatta
[2] = Drug metabolism in mouse liver microsomes; assay type: ADME, Microsome; details: read-out: Drug metabolism
[3] = Drug metabolism in rat liver microsomes; assay type: ADME, Microsome; details: read-out: Drug metabolism
[4] = Drug metabolism in human liver microsomes; assay type: ADME, Microsome; details: read-out: Drug metabolism
[5] = molecular target: Histamine H2 receptor (Homo sapiens) (UniProt P25021); test: Binding affinity to human histamine H2 receptor
Chain of Histamine H2 receptor (Homo sapiens) (P25021 whole entry): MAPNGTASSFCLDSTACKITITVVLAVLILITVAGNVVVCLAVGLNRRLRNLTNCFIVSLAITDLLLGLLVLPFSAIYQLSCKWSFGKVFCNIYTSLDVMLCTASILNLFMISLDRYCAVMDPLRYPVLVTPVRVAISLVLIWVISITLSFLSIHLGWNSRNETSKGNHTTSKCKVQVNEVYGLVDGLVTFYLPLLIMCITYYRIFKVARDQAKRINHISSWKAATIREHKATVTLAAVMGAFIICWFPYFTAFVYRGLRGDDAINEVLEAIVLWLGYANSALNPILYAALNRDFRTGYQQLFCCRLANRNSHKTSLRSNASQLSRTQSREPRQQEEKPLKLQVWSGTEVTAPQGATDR

[6] = Solubility of the compound; assay type: physicochemical
[7] = test system: Mus musculus; test: Antiobesity activity in diet-induced obese mouse assessed as reduction in accumulated food intake at 1 to 3 mg/kg, po after 12 hrs (reference value: 27.3 %); assay type: functional; set-up: scale not given: the % may be the effect or the level left; details: dose mg/kg 1-3
[8] = Apparent permeability across human Caco2/TC7 cells; assay type: ADME, cell-based; details: Caco-2
[9] = test system: Mus musculus; test: Antiobesity activity in diet-induced obese mouse assessed as reduction in accumulated food intake at 1 to 3 mg/kg, po after 4 hrs (reference value: -4.7 %); assay type: functional; set-up: scale not given: the % may be the effect or the level left; details: dose mg/kg 1-3
[10] = Antagonist activity at rhesus monkey histamine H3 receptor by GTPgammaS binding assay; set-up: species or system Macaca mulatta
[11] = test system: Mus musculus; test: Antiobesity activity in diet-induced obese mouse assessed as reduction in accumulated food intake at 1 to 3 mg/kg, po after 6 hrs (reference value: 0.1 %); assay type: functional; set-up: scale not given: the % may be the effect or the level left; details: dose mg/kg 1-3
[12] = molecular target: Histamine H1 receptor (Homo sapiens, UniProt P35367); test: Binding affinity to human histamine H1 receptor
Chain of Histamine H1 receptor (P35367 whole entry): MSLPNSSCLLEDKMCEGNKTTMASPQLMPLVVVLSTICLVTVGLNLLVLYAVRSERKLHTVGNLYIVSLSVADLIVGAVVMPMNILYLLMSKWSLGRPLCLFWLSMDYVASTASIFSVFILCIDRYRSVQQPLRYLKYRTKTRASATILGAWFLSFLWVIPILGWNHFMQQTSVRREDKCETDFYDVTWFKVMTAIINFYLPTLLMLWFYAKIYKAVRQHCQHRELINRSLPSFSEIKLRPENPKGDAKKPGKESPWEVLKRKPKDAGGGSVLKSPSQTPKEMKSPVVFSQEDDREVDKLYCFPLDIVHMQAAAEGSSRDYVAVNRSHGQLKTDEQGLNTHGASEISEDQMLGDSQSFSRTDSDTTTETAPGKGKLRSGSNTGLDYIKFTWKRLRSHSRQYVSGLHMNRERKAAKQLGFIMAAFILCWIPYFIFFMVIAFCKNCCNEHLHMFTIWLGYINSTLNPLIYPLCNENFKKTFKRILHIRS

[13] = molecular target: Histamine H3 receptor (Rattus norvegicus, UniProt Q9QYN8); test: Displacement of [3H]N-alpha-methylhistamine from rat histamine H3 receptor
Chain of Histamine H3 receptor (Rattus norvegicus, UniProt Q9QYN8) (Q9QYN8 whole entry): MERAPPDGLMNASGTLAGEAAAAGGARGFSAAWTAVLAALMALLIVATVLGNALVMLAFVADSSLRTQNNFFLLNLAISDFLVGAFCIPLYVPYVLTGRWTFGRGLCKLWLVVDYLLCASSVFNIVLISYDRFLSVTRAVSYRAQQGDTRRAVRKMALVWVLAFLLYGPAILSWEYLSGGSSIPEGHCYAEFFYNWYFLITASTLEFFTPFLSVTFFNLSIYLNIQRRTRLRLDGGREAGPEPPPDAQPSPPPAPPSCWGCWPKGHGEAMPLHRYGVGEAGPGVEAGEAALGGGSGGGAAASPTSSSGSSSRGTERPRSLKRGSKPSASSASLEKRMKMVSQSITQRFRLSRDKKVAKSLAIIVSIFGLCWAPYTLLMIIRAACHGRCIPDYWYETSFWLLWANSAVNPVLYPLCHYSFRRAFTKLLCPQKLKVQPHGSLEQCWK

[14] = molecular target: T1, Histamine H3 receptor (Homo sapiens, UniProt Q9Y5N1); test: Displacement of [3H]N-alpha-methylhistamine from human histamine H3 receptor
T1 sequence (Q9Y5N1 whole entry): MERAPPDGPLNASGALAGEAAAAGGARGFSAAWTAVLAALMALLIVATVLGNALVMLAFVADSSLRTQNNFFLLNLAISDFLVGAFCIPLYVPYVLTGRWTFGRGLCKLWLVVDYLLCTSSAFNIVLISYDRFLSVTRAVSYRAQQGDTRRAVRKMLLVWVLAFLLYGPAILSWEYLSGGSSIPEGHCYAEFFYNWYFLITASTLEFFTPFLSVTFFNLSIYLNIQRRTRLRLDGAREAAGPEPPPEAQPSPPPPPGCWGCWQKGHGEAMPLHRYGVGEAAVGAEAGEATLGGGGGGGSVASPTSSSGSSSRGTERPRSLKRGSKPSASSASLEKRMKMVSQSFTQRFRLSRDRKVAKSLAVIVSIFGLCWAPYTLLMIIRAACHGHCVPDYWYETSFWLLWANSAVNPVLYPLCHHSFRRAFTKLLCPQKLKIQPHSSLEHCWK

[15] = molecular target: Voltage-gated inwardly rectifying potassium channel KCNH2 (Homo sapiens, UniProt Q12809); test: Inhibition of human ERG channel
Chain of Voltage-gated inwardly rectifying potassium channel KCNH2 (Q12809 whole entry): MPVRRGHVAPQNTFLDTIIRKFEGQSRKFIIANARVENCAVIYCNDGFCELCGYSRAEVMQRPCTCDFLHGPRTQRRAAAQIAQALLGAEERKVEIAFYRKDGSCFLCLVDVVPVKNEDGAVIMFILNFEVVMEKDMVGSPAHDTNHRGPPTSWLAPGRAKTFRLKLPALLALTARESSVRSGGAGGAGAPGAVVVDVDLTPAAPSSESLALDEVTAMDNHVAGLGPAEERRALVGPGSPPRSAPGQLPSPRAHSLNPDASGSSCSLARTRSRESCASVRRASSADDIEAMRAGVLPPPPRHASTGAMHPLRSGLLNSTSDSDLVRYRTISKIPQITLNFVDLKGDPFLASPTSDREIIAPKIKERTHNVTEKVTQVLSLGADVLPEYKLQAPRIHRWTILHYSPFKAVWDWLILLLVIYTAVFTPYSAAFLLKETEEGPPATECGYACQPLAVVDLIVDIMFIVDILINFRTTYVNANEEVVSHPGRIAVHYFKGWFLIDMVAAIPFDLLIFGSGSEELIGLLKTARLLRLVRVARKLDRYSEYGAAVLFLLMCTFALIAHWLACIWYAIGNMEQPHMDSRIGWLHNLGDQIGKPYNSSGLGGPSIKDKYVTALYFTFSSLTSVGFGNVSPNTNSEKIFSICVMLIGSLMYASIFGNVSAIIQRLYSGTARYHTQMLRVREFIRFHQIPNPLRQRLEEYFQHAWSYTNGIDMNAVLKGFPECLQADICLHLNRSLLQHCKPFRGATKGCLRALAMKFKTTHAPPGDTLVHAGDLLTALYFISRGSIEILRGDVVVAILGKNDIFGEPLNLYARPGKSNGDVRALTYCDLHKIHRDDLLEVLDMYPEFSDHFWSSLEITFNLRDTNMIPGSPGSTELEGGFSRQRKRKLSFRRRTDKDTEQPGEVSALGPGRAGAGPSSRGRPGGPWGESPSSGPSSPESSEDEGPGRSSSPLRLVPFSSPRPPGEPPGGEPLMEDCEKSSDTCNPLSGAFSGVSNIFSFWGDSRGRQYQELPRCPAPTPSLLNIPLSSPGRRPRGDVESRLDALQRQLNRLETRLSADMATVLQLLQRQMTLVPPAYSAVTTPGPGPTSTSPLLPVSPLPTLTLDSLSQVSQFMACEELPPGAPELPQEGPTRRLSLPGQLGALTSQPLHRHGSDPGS

[16] = test system: Mus musculus; test: Antiobesity activity in po dosed diet-induced obese mouse assessed as reduction in accumulated food intake after 4 to 12 hrs; assay type: functional, organism-based
[17] = molecular target: T2, hERG (KCNH2) (Homo sapiens, UniProt Q12809); test: Inhibition of human ERG channel at 10 uM
T2 sequence (Q12809 whole entry): as above

[18] = molecular target: T2, hERG (KCNH2); test: Inhibition of human ERG channel at 1 uM
[19] = molecular target: T1, Histamine H3 receptor; test: Antagonist activity at human histamine H3 receptor at 10 uM by GTPgammaS binding assay; assay type: functional
[20] = molecular target: T1, Histamine H3 receptor; test: Antagonist activity at human histamine H3 receptor by FLIPR assay

Compound: Cc1cc(N2CCC(N3CCCC3C)C2)ccc1NC(=O)c1ccc(S(C)(=O)=O)cc1 (stereo unspecified)
Ki [1]: 25.6 nM

Compound: Cc1cc(N2CCC(N3CCCC3C)C2)ccc1NC(=O)c1cc2ccccc2[nH]1 (stereo unspecified)
Ki [1]: 71.1 nM

Compound: Cc1cc(N2CCC(N3CCCC3C)C2)ccc1NC(=O)c1ccc(CO)cc1 (stereo unspecified)
Ki [1]: 12.7 nM

Compound: CC1CCCN1C1CCN(c2ccc(NC(=O)c3ccc(N(C)C)cc3)cc2)C1 (stereo unspecified)
Ki [1]: 33.5 nM

Compound: Cc1cc(N2CCC(N3CCCC3C)C2)ccc1NC(=O)c1ccc(-c2ccccn2)cc1 (stereo unspecified)
Ki [1]: 12.2 nM

Compound: Cc1cc(N2CCC(N3CCCC3C)C2)ccc1NC(=O)c1ccc(-c2cccnc2)cc1 (stereo unspecified)
Ki [1]: 18.8 nM

Compound: Cc1cc(N2CCC(CN3CCCC3C)C2)ccc1NC(=O)c1ccc2[nH]ccc2c1 (stereo unspecified)
Ki [1]: 45 nM

Compound: CC1CCCN1C1CCN(c2ccc(NC(=O)c3cccc(F)c3)c(C(F)(F)F)c2)C1 (stereo unspecified)
Ki [1]: 40 nM

Compound: CC1CCCN1C1CCN(c2ccc(NC(=O)c3ccccc3N(C)C)cc2)C1 (stereo unspecified)
Ki [1]: 13.8 nM

metabolised [2]: 22%
metabolised [3]: 33%
metabolised [4]: 32%
Compound: Cc1cc(N2CCC(N3CCCC3C)C2)ccc1NC(=O)c1ccc(Cl)cc1 (stereo unspecified)
Ki [1]: 2.6 nM

Activity [5]: inactive
solubility [6]: 2670 µg/mL (≈ 6.75 mM)
Papp [8]: 9.19 ×10⁻⁶ cm/s
EC50 [10]: 1.1 nM
Ki [12]: > 9300 nM
metabolised [3]: 38%
Ki [13]: 16.5 nM
Ki [14]: 8.6 nM
metabolised [4]: 5%
Compound: Cc1cc(N2CCC(N3CCCC3C)C2)ccc1NC(=O)c1cc(F)ccc1C (stereo unspecified)
Activity [7]: 30.4%
Ki [1]: 1.2 nM
Activity [9]: 59.8%
Activity [11]: 39.6%
IC50 [15]: 480 nM
Activity [16]: Dose-dependent effect

Compound: Cc1cc(N2CCC(N3CCCC3C)C2)ccc1NC(=O)c1ccc(Oc2ccccn2)cc1 (stereo unspecified)
Ki [1]: 22.8 nM

metabolised [2]: 44%
metabolised [3]: 45%
metabolised [4]: 14%
Compound: CC1CCCN1C1CCN(c2ccc(NC(=O)c3ccccc3F)c(C(F)(F)F)c2)C1 (stereo unspecified)
Ki [1]: 16.9 nM

Papp [8]: 0.35 ×10⁻⁶ cm/s
metabolised [2]: 16%
metabolised [3]: 28%
metabolised [4]: 2%
Compound: Cc1cc(N2CCC(N3CCCC3C)C2)ccc1NC(=O)c1cn[nH]c1 (stereo unspecified)
Ki [1]: 24.7 nM

Compound: Cc1cc(NC(=O)c2cc(Cl)cc(Cl)c2)ccc1N1CCC(N2CCCC2C)C1 (stereo unspecified)
Ki [1]: 54 nM

Compound: Cc1cc(N2CCC(N3CCCC3C)C2)ccc1NC(=O)c1ccc(Oc2nccs2)cc1 (stereo unspecified)
Ki [1]: 24 nM

Compound: Cc1cc(N2CCC(N3CCCC3C)C2)ccc1NC(=O)c1ccc(C#N)cc1 (stereo unspecified)
Ki [1]: 11.3 nM

Compound: Cc1cc(N2CCC(CN3CCCC3C)C2)ccc1NC(=O)c1ccc(CO)cc1 (stereo unspecified)
Ki [1]: 62.1 nM

Compound: Cc1cc(N2CCC(CN3CCCC3C)C2)ccc1NC(=O)c1ccc(-n2cccc2)cc1 (stereo unspecified)
Ki [1]: 3.1 nM

Compound: Cc1cc(NC(=O)c2cn[nH]c2)ccc1N1CCC(N2CCCC2C)C1 (stereo unspecified)
Ki [1]: 126 nM

Compound: CC1CCCN1C1CCN(c2ccc(NC(=O)c3cccc(N(C)C)c3)cc2)C1 (stereo unspecified)
Ki [1]: 33.3 nM

metabolised [2]: 43%
metabolised [3]: 90%
metabolised [4]: 29%
Compound: Cc1cc(NC(=O)c2ccc(Cl)cc2)ccc1N1CCC(N2CCCC2C)C1 (stereo unspecified)
Ki [1]: 4.8 nM

Compound: Cc1cc(N2CCC(N3CCCC3C)C2)ccc1NC(=O)c1ccc(-n2cncn2)cc1 (stereo unspecified)
Ki [1]: 8.1 nM

Compound: Cc1cc(N2CCC(CN3CCCC3C)C2)ccc1NC(=O)c1ccc2cc[nH]c2c1 (stereo unspecified)
Ki [1]: 18 nM

Compound: Cc1cc(N2CCC(N3CCCC3C)C2)ccc1NC(=O)c1cccs1 (stereo unspecified)
Ki [1]: 12.4 nM

Compound: Cc1cc(N2CCC(CN3CCCC3C)C2)ccc1NC(=O)c1ccc(C)c(S(C)(=O)=O)c1 (stereo unspecified)
Ki [1]: 29 nM

Papp [8]: 7.81 ×10⁻⁶ cm/s
metabolised [2]: 21%
metabolised [3]: 64%
metabolised [4]: 16%
Compound: Cc1cc(N2CCC(N3CCCC3C)C2)ccc1NC(=O)c1ccc2cc[nH]c2c1 (stereo unspecified)
Ki [1]: 15.1 nM

Papp [8]: 9.19 ×10⁻⁶ cm/s
metabolised [2]: 16%
metabolised [3]: 37%
metabolised [4]: 2%
Compound: Cc1cc(C(=O)Nc2ccc(N3CCC(N4CCCC4C)C3)cc2)n[nH]1 (stereo unspecified)
Ki [1]: 44.5 nM

Compound: Cc1cc(NC(=O)c2cccs2)ccc1N1CCC(N2CCCC2C)C1 (stereo unspecified)
Ki [1]: 19.9 nM

metabolised [2]: 89%
metabolised [3]: 79%
metabolised [4]: 87%
Compound: Cc1cc(C)n(-c2ccc(C(=O)Nc3ccc(N4CCC(N5CCCC5C)C4)cc3C)cc2)n1 (stereo unspecified)
Ki [1]: 4.3 nM

Compound: CC1CCCN1C1CCN(c2ccc(NC(=O)c3cn[nH]c3)cc2)C1 (stereo unspecified)
Ki [1]: 22.1 nM

metabolised [2]: 43%
metabolised [3]: 90%
metabolised [4]: 20%
Compound: CC1CCCN1C1CCN(c2ccc(NC(=O)c3ccc(Cl)cc3)cc2)C1 (stereo unspecified)
Ki [1]: 4.7 nM
inhibition at 10 µM [17]: 95%
inhibition at 1 µM [18]: 19.9%

Compound: Cc1cc(N2CCC(N3CCCC3C)C2)ccc1NC(=O)c1c(C)noc1C (stereo unspecified)
Ki [1]: 2.6 nM

metabolised [2]: 12%
metabolised [3]: 24%
metabolised [4]: 13%
Compound: Cc1noc(C)c1C(=O)Nc1ccc(N2CCC(N3CCCC3C)C2)cc1 (stereo unspecified)
Ki [1]: 2.1 nM

Compound: Cc1ccc(F)cc1C(=O)Nc1ccc(N2CCC(N3CCCC3C)C2)cc1C(F)(F)F (stereo unspecified)
Ki [1]: 4 nM

Compound: Cc1cc(N2CCC(N3CCCC3C)C2)ccc1NC(=O)c1cccc(F)c1 (stereo unspecified)
Ki [1]: 12.1 nM

Compound: Cc1ccc(F)cc1C(=O)Nc1ccc(N2CCC(N3CCCC3C)C2)cc1 (stereo unspecified)
Ki [1]: 4.7 nM

inhibition [19]: 119%
IC50 [20]: 0.48 nM
Compound: CC1CCCN1C1CCN(c2ccc(NC(=O)c3cc(Cl)cc(Cl)c3)cc2)C1 (stereo unspecified)
Ki [1]: 49.5 nM

Activity [5]: inactive
Papp [8]: 9.24 ×10⁻⁶ cm/s
EC50 [10]: 2.9 nM
Ki [12]: > 9300 nM
metabolised [3]: 28%
Ki [13]: 55.4 nM
Ki [14]: 13.8 nM
metabolised [4]: 15%
Compound: Cc1cc(N2CCC(N3CCCC3C)C2)ccc1NC(=O)c1ccccc1F (stereo unspecified)
Ki [1]: 5.8 nM
IC50 [15]: 1000 nM

Compound: Cc1cc(N2CCC(N3CCCC3C)C2)ccc1NC(=O)c1cc(Cl)cc(Cl)c1 (stereo unspecified)
Ki [1]: 24.1 nM

Compound: COc1ccc(C(=O)Nc2ccc(N3CCC(N4CCCC4C)C3)cc2)cc1 (stereo unspecified)
Ki [1]: 17.6 nM

metabolised [2]: 30%
metabolised [3]: 57%
metabolised [4]: 9%
Compound: Cc1cc(N2CCC(N3CCCC3C)C2)ccc1NC(=O)c1cccnc1 (stereo unspecified)
Ki [1]: 10.1 nM

Compound: Cc1cc(N2CC3CC4CCCN4C3C2)ccc1NC(=O)c1cc(F)ccc1C (stereo unspecified)
Ki [1]: 908 nM

Compound: Cc1cc(N2CCC(N3CCCC3C)C2)ccc1NC(=O)c1ccc(N2CCOCC2)cc1 (stereo unspecified)
Ki [1]: 44 nM

Compound: Cc1cc(N2CCC(N3CCCC3C)C2)ccc1NC(=O)c1ccc(-c2ccncc2)cc1 (stereo unspecified)
Ki [1]: 26.7 nM

Compound: CC1CCCN1C1CCN(c2ccc(NC(=O)c3ccc(CN4CCOCC4)cc3)cc2)C1 (stereo unspecified)
Ki [1]: 70.2 nM

metabolised [2]: 31%
metabolised [3]: 48%
metabolised [4]: 12%
Compound: CC1CCCN1C1CCN(c2ccc(NC(=O)c3ccccc3F)cc2)C1 (stereo unspecified)
Ki [1]: 8.2 nM

Compound: Cc1cc(N2CCC(N3CCCC3C)C2)ccc1NC(=O)c1ccc(-n2cccn2)cc1 (stereo unspecified)
Ki [1]: 39.1 nM

Compound: CC1CCCN1C1CCN(c2ccc(NC(=O)c3cccs3)cc2)C1 (stereo unspecified)
Ki [1]: 14 nM

Compound: Cc1cc(NC(=O)c2c(C)noc2C)ccc1N1CCC(N2CCCC2C)C1 (stereo unspecified)
Ki [1]: 3.2 nM

Compound: CC1CCCN1C1CCN(c2ccc(NC(=O)c3cccc(F)c3)cc2)C1 (stereo unspecified)
Ki [1]: 10.6 nM

Compound: Cc1cc(N2CCC(N3CCCC3C)C2)ccc1NC(=O)c1ccc2[nH]ccc2c1 (stereo unspecified)
Ki [1]: 30.4 nM

Compound: Cc1cc(N2CCC(N3CCCC3C)C2)ccc1NC(=O)c1ccc(C)c(S(C)(=O)=O)c1 (stereo unspecified)
Ki [1]: 11.9 nM
